# Laboratory results as given in patent US20200024246A1, “POGOSTONE DERIVATIVES AND METHODS OF USING THE SAME” (Hamyard Associates LLC, priority 2018, published 2020).
# Values joined by “and” are separate entries in the source; they are usually repeats but may differ in a detail not shown here. Equal values may be shown once. “Also recorded” adds a separate entry of the source. Read-outs that look alike come from different tables or passages of the source.
# What was measured:
# [1] = test system: Dandelion (Taraxacum officinale); assay: Soil drench herbicidal test, dandelion; assay type: in vivo; details: Dandelion; 2 weeks after soil drench - 40 mL of 0.5% solution; Rep 1 and 2
# Description: Dandelion (Taraxacum officinale) seeds were obtained from the Department of Agronomy at Iowa State University. Individual seeds were sown for each pot (6″ wide×4.5″ deep) with approximately 800 mL of soil for each plan. Only plants that germinated were used for the study. Plants were treated 1-2 weeks post emergence. Plants were watered every 2-3 days as needed. Giant foxtail (Setaria faberi) seeds were obtained from the Department of Agronomy at Iowa State University. Three seeds were sown for each pot (6″ wide×4.5″ deep) with approximately 800 mL of soil for each plan. Only plants that germinated were used for the study. Plants were treated 1-2 weeks post emergence. Plants were watered every 2-3 days as needed.
# Formulations of the various active ingredients were created using the disclosed pogostone derivatives and Triton-X 100 to aid in the solvation of the active ingredient. Formulations consisted of 0.5% active ingredient by weight. […] 40 mL of formulation ([…] active ingredient) was applied to each pot containing approximately 3-5 plants per pot at 2-3 weeks after emergence. Observations were performed 3 days and 2 weeks after soil drench to determine the effects of the treatments on the various types and stages of plants. […]
# adult, female mosquitoes = assay: Topical application on adult female mosquitoes (24-h mortality, 1-h knockdown); assay type: in vivo, mosquito; details: for ED50: read-out: KD50 (ug/g mosquito); for LD50: read-out: LD50 (ug/g mosquito)
# [2] = test system: 3-4 instar Aedes aegypti larvae; assay: Mosquito larvicide bioassay; assay type: in vivo; details: for LC50: Aedes aegypti
# Description: Mosquito larvicide bioassays were performed by introducing various concentrations of test compounds (pyrone derivatives and rotenone) into acetone at various concentrations. 200 uL of these solutions were added to individual cups containing 10, 3-4 instar Aedes aegypti larvae and 25 mL of DI water. 2 mg of Tetramin™ was provided to each cup as a food source. […] Ataxia was used as the indicator of larval mortality. At least 5 concentrations were used which caused between 10 and 90% mortality. LC50 values were calculated using a PROC PROBIT model in SAS 9.4.
# adult house flies = assay: Topical application of pogostone derivatives with PBO or plant essential oil on house flies; assay type: in vivo, house fly; details: house flies, topical, derivative alone or in combination with PBO
# Description: Combinations of select pogostone derivatives with select concentrations of PBO or plant essential oils was performed. […] Synergists were applied as a subsequent application directly after the application of pogostone derivatives. Concentrations of synergists (plant oils or PBO) were chosen that produced no mortality at 24 hours when applied alone.
# To assess the ability of PBO to increase the toxicity of a wide variety of pogostone derivatives, PBO and the pogostone derivatives were applied in combination to the pronotum of house flies.
# Finally, the potential of plant essential oils to synergize the effect of Formula 30 was assessed.
# adult female mosquitoes = assay: whole plant or invertebrate; details: for 1-hour Knockdown EC50 (μg/g mosquito) / LD50: topical; for LD50: 24 h, read-out: 24-hour Mortality LD50 (μg/g mosquito)
# Description: The first group of DHAA-based derivatives that were tested included Formula A2, Formula B3, Formula C3, and Formula D3. A solution of 0.5% or 1.5% of each of these compounds was applied to the mosquitoes, as described above. […] Acetone was used as a control.
# house flies [3] = assay: Topical application on house flies; details: House Fly Toxicity; topical
# [4] = test system: Pyrethroid-resistant strain of Aedes aegypti (Puerto Rican strain); assay: Toxicity to insecticide-resistant mosquitoes (FIG. 1); details: dose response curves FIG. 1
# house flies [5] = assay: Knockdown and mortality of DHAA-based derivatives on house flies; assay type: in vivo, house fly
# Excerpt: Accordingly, further derivatives with structures similar to Formula C3 were synthesized and tested for knockdown potential and mortality in house flies and mosquitoes using an experimental design similar to the one described above. These compounds include Formula C5, Formula C6, Formula C7, Formula C8, Formula C9, and Formula C10.
# adult flies = assay: Contact toxicity on treated filter paper; assay type: in vivo; details: filter paper treated with 1 mL in acetone; 24 hours
# Description: Filter papers were treated with 1 mL of the disclosed compounds in acetone at varying concentrations, and the filter papers were placed in a dish. Ten adult flies were added to each dish and a sugar pad was added to each dish to ensure that any mortality could be attributed to the compound instead of starvation. Mortality was assessed at 24 hours.
# soybean aphids = assay: Soybean aphid leaf dip assay for DHAA-based derivatives; assay type: in vivo; details: 24 hours
# Description: Isolated soybean leaves were dipped into a pyrone solution containing either 0.5% or 1.5% of select DHAA-based derivatives. The leaves were allowed to dry for 30 minutes, and then place in a dish. Ten soybean aphids were placed on each leaf. Mortality was assessed at 24 hours.
# [6] = test system: Western corn rootworm larvae; assay: Seed treatment testing: rootworm survival (FIG. 2A); assay type: in vivo; details: seeds coated with compound; 1 week after introduction of larvae
# Description: (§1) Corn seeds used were a non-transgenic type strain of corn to prevent confounding results. Germination typically occurred between 2-4 days after moistening.
# (§2) Seed coating was accomplished by placing 20 g of corn seeds or soybeans into a container with approximately 1 mL of a 1:5 Elmer's glue:water solution with a small amount of Triton-X100™ (present 100 μL/5 mL). For solid compounds, 0.25 g of compound was subsequently introduced into the container. This mixture of seeds, Elmer's Glue/water/Triton-X 100™ solution, and active compound was mixed thoroughly until seeds were coated with the active ingredient.
# (§3) For each treatment, 0.25 g of liquid compound was dissolved in 5 mL of hexane. 0.25 g of Hi-Sil 233 silica gel was introduced into this mixture of hexane and active ingredient. The solvent was blown-off using a rotary evaporator, allowing for the compound to adsorb to the silica gel. This 0.5 g of silica gel:active ingredient was then used as the solid material used for coating the seeds. The seeds were then coated with the same method used for solid compound.
# (§4) Three corn seeds coated in pogostone derivative treatments were germinated in small, 2-oz. […] Germination of seedlings was also recorded at the end of the assay by counting the total number of seeds that produced roots out of the 3 seeds in each container/replicate and recorded as total percentage germination. […]
# corn seeds = assay: Seed treatment testing: survival/germination of treated corn seeds (FIG. 2B); assay type: in vivo; details: seeds coated with compound; 1 week after introduction of larvae
# Description: as §1, §2, §3, §4
compound,measurement,setting,value
"O=C(O)COc1ccc(Cl)cc1Cl [2,4-D, 2,4-dichlorophenoxyacetic acid]",% mortality,[1],100% and 80%
CCCC(=O)c1c(O)c2ccccc2oc1=O [Formula 14],ED50,"adult, female mosquitoes; topical, 1 h",> 1500 mg/kg
same,LD50,"adult, female mosquitoes; topical, 24 h",139 mg/kg
same,"insecticidal properties compared with natural pogostone, natural pyrethrins or terpenoids","adult, female mosquitoes; words, refers to Table 1",possessed better insecticidal properties than natural pogostone
same,LC50,"[2]; larval mortality at 24 hours, in 25 mL DI water, read-out: LC50",0.9 µg/mL
same,larvicidal properties compared with natural pogostone or rotenone,[2]; words,possessed better larvicidal properties than natural pogostone; also recorded: possessed better larvicidal properties than rotenone; also recorded: performed as well as the rotenone
same,LD50 (μg/g),adult house flies,">6,000 μg/g"
same,1-hour Knockdown EC50 (μg/g mosquito),adult female mosquitoes,>1500 μg/g mosquito
same,LD50,adult female mosquitoes,139 mg/kg
same,LD50 (ug/g fly),house flies [3],">6,000 ug/g fly"
same,insecticidal capacity compared with natural pyrethrins,[4],outperformed natural pyrethrins
Cc1cc(O)c(C(=O)CC(O)C(C)C)c(=O)o1 (stereo not shown) [Formula C10],Mosquito Knockdown at 0.5% concentration,adult female mosquitoes; 0.5% concentration,100%
same,Mosquito Mortality at 0.5% concentration,adult female mosquitoes; 0.5% concentration,100%
same,Mosquito Knockdown at 1.5% concentration,adult female mosquitoes; 1.5% concentration,100%
same,Mosquito Mortality at 1.5% concentration,adult female mosquitoes; 1.5% concentration,100%
same,1-hour Knockdown EC50 (μg/g mosquito),adult female mosquitoes,49 μg/g mosquito
same,LD50,adult female mosquitoes,29 mg/kg
same,ranking in knockdown and mortality screenings,adult female mosquitoes; words,performed the best in the initial knockdown and mortality screenings
same,House Fly Knockdown at 0.5% concentration,house flies [5]; 0.5% concentration,52.5%
same,House Fly Mortality at 0.5% concentration,house flies [5]; 0.5% concentration,23%
same,House Fly Knockdown at 1.5% concentration,house flies [5]; 1.5% concentration,64%
same,House Fly Mortality at 1.5% concentration,house flies [5]; 1.5% concentration,24%
same,"percent mortality, 0.10% Concentration",adult flies,15%
same,"percent mortality, 0.25% Concentration",adult flies,0%
same,"percent mortality, 0.50% Concentration",adult flies,45%
same,soybean aphids dead,soybean aphids; leaf dipped in 0.5% solution,Roughly 67%
same,soybean aphids dead,soybean aphids; leaf dipped in 1.5% solution,Roughly 90%
"Cc1cc(O)c(C(=O)CCC(C)C)c(=O)o1 [Pogostone, 3-(4-Methylpentanoyl)-4-hydroxy-2H]",ED50,"adult, female mosquitoes; Mosquito Knockdown Properties (1 hour), topical application",18.4 mg/kg
same,LD50,"adult, female mosquitoes; Mosquito Toxicity (24 hours), topical application to pronotum",388 mg/kg
same,LC50,[2]; 24 h,18.3 µg/mL
same,western corn rootworm mortality,[6],significant western corn rootworm mortality
same,phytotoxicity to treated corn seeds,corn seeds,Significant phytotoxicity
same,1-hour Knockdown EC50 (μg/g mosquito),adult female mosquitoes,95.2 μg/g mosquito
same,LD50,adult female mosquitoes,262 mg/kg
same,"percent mortality, 0.10% Concentration",adult flies,95%
same,"percent mortality, 0.25% Concentration",adult flies,100%
same,"percent mortality, 0.50% Concentration",adult flies,100%
